According to PubChem BioAssay (NCI):
“And” between values parts separate entries of the source, which are not always exact repeats. Equal entries are not always repeated.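 Where inhibition never reached the appropriate level, the endpoint shown equals the highest concentration tested. Otherwise, values were interpolated linearly from a five-concentration, 48-hour dose response in 96-well plates. GI50: concentration for 50% inhibition of growth. The concentration for full growth arrest is given as TGI.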

Legend:
Experiment in all cases: NCI tumour cell line growth inhibition, 48 h
[1] = system: RPMI-8226 leukemia
[2] = system: RXF 393 renal
[3] = system: UO-31 renal
[4] = system: HL-60(TB) leukemia
[5] = system: A549 NSCLC
[6] = system: DMS 114 small cell lung
[7] = system: SF-268 CNS
[8] = system: M19-MEL melanoma
[9] = system: SW-620 colon
[10] = system: ACHN renal

Structure (SMILES) | TGI [1] [µM] | TGI [2] [µM] | TGI [3] | TGI [4] | TGI [5] [µM] | TGI [6] [µM] | TGI [7] [µM] | TGI [8] [µM] | TGI [9] [µM] | TGI [10] | GI50 [4] [µM] | GI50 [7] [µM] | GI50 [9] [µM] | GI50 [1] [µM] | GI50 [3] [µM] | GI50 [5] [µM] | GI50 [10] [µM]
N#Cc1c(-c2ccccc2)cc(-c2ccc(N)cc2)[nH]c1=O | > 100 | > 100 | > 100 µM | > 100 µM | > 100 | > 100 | > 100 | > 100 | > 100 | > 100 µM |  |  |  |  |  |  | 
CC(C)(C)OP(=O)(OC(C)(C)C)C(O)c1ccc(/C=C(\C#N)C(N)=O)cc1 (stereo not drawn) | > 100 | > 100 | > 100 µM | > 100 µM | > 100 | > 100 | > 100 | > 100 | > 100 | > 100 µM |  |  |  |  |  |  | 
C[N+](C)(C)CC1CCC(C[N+](C)(C)C)C1=O (stereo not drawn) | 27.2 | 3.71 | 8.51 µM | 0.995 µM | 45.8 | 6.74 | 21.2 | 3.83 | 2.86 | 3.49 µM | 0.309 | 7.26 | 1.18 |  |  |  | 
CC[C@@]1(OC(=O)C(N)CCCCN)C(=O)OCc2c1cc1n(c2=O)Cc2cc3ccccc3nc2-1 (stereo partly drawn) | 0.883 | 0.861 | 0.148 µM | 0.127 µM | 2.81 | 0.263 | 11.9 | 0.509 | > 28.7 | 0.129 µM |  |  |  |  |  |  | 
CCCCCCCCCC[C@@H](O)[C@@H]1CC[C@@H]([C@@H]2CC[C@@H]([C@@H](O)CCCCCCCCCC[C@H](O)CC3=CC(C)OC3=O)O2)O1 (stereo partly drawn) |  | 9.8 | 5.24 µM and > 20 µM | 2.96 µM and 5.84 µM | 38.5 | 11.2 |  | > 100 | > 100 | 5.75 µM and 20.7 µM | 1.54 | 3.29 | 4.82 | 7.14 | 2.42 | 3.05 | 2.26
c1ccc(CN2CCc3[nH]c4ccccc4c3C2)cc1 | 69.3 | > 100 | 79.2 µM | 46.3 µM | > 79.8 | 47.3 | > 86.8 | > 82.1 | 50 | 99.8 µM |  |  |  |  |  |  | 
O=[P+](O)c1ccccn1 | > 100 | > 100 | > 100 µM | > 100 µM | > 100 | > 100 | > 100 | > 100 | > 100 | > 100 µM |  |  |  |  |  |  | 
C1OC1CN1CCN(CC2CO2)CC1 (stereo not drawn) | > 100 | > 100 | > 100 µM | > 88.7 µM | > 100 | > 100 | > 100 | > 100 | > 100 | > 100 µM |  |  |  |  |  |  | 
C[P+](C)(C)C | > 100 | > 100 | > 100 µM | > 100 µM | > 100 | > 100 | > 100 | > 100 | > 100 | > 100 µM |  |  |  |  |  |  | 
Cc1ccccc1NC(=O)/C=N/O | > 100 | > 100 | > 100 µM | 48.5 µM | > 100 | > 100 | > 100 | > 100 | > 100 | > 100 µM |  |  |  |  |  |  | 
Cc1cccc(C)c1NC(=O)CCC/C(CC(=O)c1ccc(F)cc1)=N\NC(=O)C(=O)NN | > 100 | > 100 | > 100 µM | > 100 µM | > 100 | > 100 | > 100 | > 100 | > 100 | > 100 µM |  |  |  |  |  |  | 
